Experimental data from ChEMBL document CHEMBL3091421, “Discovery of benzo[d]imidazo[5,1-b]thiazole as a new class of phosphodiesterase 10A inhibitors” (Bioorg Med Chem Lett, 2013).

Experiments:
[1] = species on record: Homo sapiens; test: Selectivity ratio of IC50 for PDE4D (unknown origin) to IC50 for human recombinant PDE10A
[2] = system: Rattus norvegicus; test: Antipsychotic activity in ip dosed Sprague-Dawley rat assessed as reduction in quipazine-induced head-twitches administered 15 mins prior to quipazine-challenge measured immediately relative to vehicle-treated control; format: functional
[3] = system: Rattus norvegicus; test: Antipsychotic activity in ip dosed Sprague-Dawley rat psychosis model assessed as inhibition of MK-801-induced ataxia administered 5 mins prior to MK-801-challenge measured after 15 mins up to 1 hr relative to vehicle-treated control; format: functional, organism-based
[4] = system: Rattus norvegicus; test: Antipsychotic activity in Sprague-Dawley rat psychosis model assessed as inhibition of MK-801-induced locomotion at 0.3 mg/kg, ip administered 5 mins prior to MK-801-challenge measured after 15 mins up to 1 hr relative to vehicle-treated control; format: functional; details: route intraperitoneal
[5] = species on record: Homo sapiens; test: Selectivity ratio of IC50 for PDE11A (unknown origin) to IC50 for human recombinant PDE10A
[6] = system: Rattus norvegicus; test: Antipsychotic activity in Sprague-Dawley rat conditioned avoidance response model assessed as reduction in avoidance at 3 mg/kg, ip after 15 mins relative to vehicle-treated control; format: functional; parameters: scale not given: the % may be the effect or the level left; details: route intraperitoneal
[7] = molecular target: cGMP-dependent 3',5'-cyclic phosphodiesterase (Homo sapiens) (UniProt O00408); test: Inhibition of PDE2A (unknown origin) using cAMP as substrate at 10 uM after 30 mins by HTRF method
Chain of cGMP-dependent 3',5'-cyclic phosphodiesterase (Homo sapiens) (O00408 whole entry): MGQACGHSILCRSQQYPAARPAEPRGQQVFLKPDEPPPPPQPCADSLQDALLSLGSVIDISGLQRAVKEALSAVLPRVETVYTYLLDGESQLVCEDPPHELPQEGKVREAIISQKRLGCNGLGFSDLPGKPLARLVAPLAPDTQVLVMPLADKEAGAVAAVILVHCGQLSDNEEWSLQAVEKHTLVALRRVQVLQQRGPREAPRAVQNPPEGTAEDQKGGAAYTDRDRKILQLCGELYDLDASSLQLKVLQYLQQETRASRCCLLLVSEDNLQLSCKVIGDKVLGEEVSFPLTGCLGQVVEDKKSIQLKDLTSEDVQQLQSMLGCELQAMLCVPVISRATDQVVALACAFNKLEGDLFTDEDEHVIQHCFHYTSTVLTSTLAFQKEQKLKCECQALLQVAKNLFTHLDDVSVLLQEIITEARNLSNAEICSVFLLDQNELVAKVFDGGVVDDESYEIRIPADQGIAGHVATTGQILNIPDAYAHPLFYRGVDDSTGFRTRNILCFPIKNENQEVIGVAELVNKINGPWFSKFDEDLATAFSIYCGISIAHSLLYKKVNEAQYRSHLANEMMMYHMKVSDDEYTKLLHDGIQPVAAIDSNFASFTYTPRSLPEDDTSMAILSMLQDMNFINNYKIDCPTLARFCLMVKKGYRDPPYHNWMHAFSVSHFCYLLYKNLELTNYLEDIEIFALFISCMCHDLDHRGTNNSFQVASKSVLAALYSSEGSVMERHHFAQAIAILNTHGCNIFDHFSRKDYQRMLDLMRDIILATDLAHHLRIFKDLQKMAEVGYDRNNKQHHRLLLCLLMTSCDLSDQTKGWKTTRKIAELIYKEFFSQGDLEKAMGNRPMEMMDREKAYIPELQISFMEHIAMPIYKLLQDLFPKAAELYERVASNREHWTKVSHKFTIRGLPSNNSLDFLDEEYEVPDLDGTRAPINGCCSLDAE

[8] = system: Mus musculus; test: Antipsychotic activity in ip dosed CD-1 mouse assessed as reduction in apomorphine-induced sniffing behavior administered 15 mins prior to apomorphine-challenge measured immediately relative to vehicle-treated control; format: functional; details: CD-1, ip
[9] = species on record: Homo sapiens; test: Selectivity ratio of IC50 for PDE9A2 (unknown origin) to IC50 for human recombinant PDE10A
[10] = Metabolic stability in human liver microsomes assessed as compound remaining after 60 mins; format: ADME; details: read-out: Stability
[11] = system: Rattus norvegicus; test: Antipsychotic activity in Sprague-Dawley rat assessed as reduction in quipazine-induced head-twitches at 6 mg/kg, ip administered 15 mins prior to quipazine-challenge measured immediately relative to vehicle-treated control; format: functional; parameters: scale not given: the % may be the effect or the level left; details: route intraperitoneal
[12] = system: Rattus norvegicus; test: Antipsychotic activity in Sprague-Dawley rat psychosis model assessed as inhibition of MK-801-induced ataxia at 3 mg/kg, ip administered 5 mins prior to MK-801-challenge measured after 15 mins up to 1 hr relative to vehicle-treated control; format: functional; details: route intraperitoneal
[13] = species on record: Homo sapiens; test: Selectivity ratio of IC50 for PDE3A (unknown origin) to IC50 for human recombinant PDE10A
[14] = system: Rattus norvegicus; test: Antipsychotic activity in Sprague-Dawley rat psychosis model assessed as inhibition of MK-801-induced locomotion at 6 mg/kg, ip administered 5 mins prior to MK-801-challenge measured after 15 mins up to 1 hr relative to vehicle-treated control; format: functional; details: route intraperitoneal
[15] = molecular target: High affinity cGMP-specific 3',5'-cyclic phosphodiesterase 9A (Homo sapiens) (UniProt O76083); test: Inhibition of PDE9A2 (unknown origin) using [3H]-cGMP as substrate at 10 uM after 30 mins by radiometric assay
Chain of High affinity cGMP-specific 3',5'-cyclic phosphodiesterase 9A (Homo sapiens) (O76083 whole entry): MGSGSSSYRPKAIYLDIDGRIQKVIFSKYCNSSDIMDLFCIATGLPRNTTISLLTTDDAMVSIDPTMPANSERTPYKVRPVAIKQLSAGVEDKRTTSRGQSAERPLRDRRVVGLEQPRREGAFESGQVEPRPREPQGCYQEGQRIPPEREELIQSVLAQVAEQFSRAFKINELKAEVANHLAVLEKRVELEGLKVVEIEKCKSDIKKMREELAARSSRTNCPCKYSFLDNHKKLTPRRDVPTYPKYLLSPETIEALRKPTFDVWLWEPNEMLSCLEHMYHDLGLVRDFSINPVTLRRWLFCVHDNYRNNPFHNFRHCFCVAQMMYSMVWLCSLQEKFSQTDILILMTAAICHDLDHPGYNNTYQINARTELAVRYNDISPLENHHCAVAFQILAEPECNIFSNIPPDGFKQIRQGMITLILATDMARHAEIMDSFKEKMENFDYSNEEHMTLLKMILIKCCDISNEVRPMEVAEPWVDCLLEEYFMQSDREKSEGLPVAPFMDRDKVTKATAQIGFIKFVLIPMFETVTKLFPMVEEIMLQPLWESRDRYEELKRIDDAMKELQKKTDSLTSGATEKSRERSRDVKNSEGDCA

[16] = system: Rattus norvegicus; test: Antipsychotic activity in Sprague-Dawley rat assessed as reduction in quipazine-induced head-twitches at 3 mg/kg, ip administered 15 mins prior to quipazine-challenge measured immediately relative to vehicle-treated control; format: functional; parameters: scale not given: the % may be the effect or the level left; details: route intraperitoneal
[17] = molecular target: cAMP and cAMP-inhibited cGMP 3',5'-cyclic phosphodiesterase 10A (Homo sapiens, UniProt Q9Y233); test: Inhibition of human recombinant PDE10A using [3H]-cAMP/[3H]-cGMP as substrate after 30 mins by radiometric assay
Chain of cAMP and cAMP-inhibited cGMP 3',5'-cyclic phosphodiesterase 10A (Q9Y233 whole entry): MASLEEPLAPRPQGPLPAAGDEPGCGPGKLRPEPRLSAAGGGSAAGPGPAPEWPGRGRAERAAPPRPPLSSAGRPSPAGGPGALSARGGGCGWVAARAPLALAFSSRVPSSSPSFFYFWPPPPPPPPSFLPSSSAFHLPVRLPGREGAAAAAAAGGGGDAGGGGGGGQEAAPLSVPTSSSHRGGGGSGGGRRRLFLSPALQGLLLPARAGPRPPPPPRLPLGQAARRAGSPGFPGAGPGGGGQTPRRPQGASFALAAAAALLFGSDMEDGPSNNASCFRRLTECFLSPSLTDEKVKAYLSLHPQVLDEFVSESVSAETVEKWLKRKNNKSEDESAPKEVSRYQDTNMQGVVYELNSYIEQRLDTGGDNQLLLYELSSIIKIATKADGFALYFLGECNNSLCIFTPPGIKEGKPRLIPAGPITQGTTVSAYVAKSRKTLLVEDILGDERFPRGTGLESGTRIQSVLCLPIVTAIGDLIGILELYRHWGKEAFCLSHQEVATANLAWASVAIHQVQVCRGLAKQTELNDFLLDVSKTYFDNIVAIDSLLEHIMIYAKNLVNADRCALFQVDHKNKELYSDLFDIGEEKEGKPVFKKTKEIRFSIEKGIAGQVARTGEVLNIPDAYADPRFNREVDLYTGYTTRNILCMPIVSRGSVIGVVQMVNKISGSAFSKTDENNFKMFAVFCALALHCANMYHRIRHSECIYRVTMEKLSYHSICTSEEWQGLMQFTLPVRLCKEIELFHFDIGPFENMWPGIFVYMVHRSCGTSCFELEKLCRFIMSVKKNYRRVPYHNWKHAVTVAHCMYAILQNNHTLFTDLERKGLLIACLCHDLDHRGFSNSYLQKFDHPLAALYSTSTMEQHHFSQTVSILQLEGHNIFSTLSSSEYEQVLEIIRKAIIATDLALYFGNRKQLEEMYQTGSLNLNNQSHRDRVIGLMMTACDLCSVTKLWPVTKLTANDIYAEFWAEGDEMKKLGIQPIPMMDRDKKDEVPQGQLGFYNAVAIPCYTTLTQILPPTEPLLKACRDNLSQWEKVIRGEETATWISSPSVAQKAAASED

[18] = species on record: Homo sapiens; test: Selectivity ratio of IC50 for PDE8A (unknown origin) to IC50 for human recombinant PDE10A
[19] = molecular target: 3',5'-cyclic-AMP phosphodiesterase 4D (Homo sapiens) (UniProt Q08499); test: Inhibition of PDE4D (unknown origin) using cAMP as substrate at 10 uM after 30 mins
Chain of 3',5'-cyclic-AMP phosphodiesterase 4D (Homo sapiens) (Q08499 whole entry): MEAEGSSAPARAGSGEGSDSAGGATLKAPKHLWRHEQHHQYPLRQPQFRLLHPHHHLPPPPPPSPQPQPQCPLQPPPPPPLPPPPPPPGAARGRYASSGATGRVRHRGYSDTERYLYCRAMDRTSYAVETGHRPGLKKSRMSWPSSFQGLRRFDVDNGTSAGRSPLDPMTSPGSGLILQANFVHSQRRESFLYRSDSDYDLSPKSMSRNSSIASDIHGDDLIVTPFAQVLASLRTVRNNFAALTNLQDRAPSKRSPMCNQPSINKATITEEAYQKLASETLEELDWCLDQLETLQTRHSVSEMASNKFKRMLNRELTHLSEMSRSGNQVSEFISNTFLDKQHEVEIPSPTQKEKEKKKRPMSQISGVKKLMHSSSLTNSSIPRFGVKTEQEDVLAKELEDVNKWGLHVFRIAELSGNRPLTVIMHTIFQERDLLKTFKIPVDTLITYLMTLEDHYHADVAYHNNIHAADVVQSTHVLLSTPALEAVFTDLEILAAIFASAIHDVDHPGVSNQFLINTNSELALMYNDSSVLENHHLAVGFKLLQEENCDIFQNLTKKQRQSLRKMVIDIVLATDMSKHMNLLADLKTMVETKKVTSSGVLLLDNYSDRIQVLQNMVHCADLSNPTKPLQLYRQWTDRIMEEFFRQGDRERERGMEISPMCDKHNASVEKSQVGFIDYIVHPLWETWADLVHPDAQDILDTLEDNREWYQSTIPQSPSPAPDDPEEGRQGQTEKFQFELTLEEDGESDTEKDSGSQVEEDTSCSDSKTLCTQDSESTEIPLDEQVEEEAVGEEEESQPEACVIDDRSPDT

[20] = species on record: Homo sapiens; test: Selectivity ratio of IC50 for PDE1A (unknown origin) to IC50 for human recombinant PDE10A
[21] = system: Rattus norvegicus; test: Antipsychotic activity in Sprague-Dawley rat psychosis model assessed as inhibition of MK-801-induced ataxia at 6 mg/kg, ip administered 5 mins prior to MK-801-challenge measured after 15 mins up to 1 hr relative to vehicle-treated control; format: functional; details: route intraperitoneal
[22] = system: Rattus norvegicus; test: Antipsychotic activity in ip dosed Sprague-Dawley rat conditioned avoidance response model assessed as reduction in avoidance after 15 mins relative to vehicle-treated control; format: functional
[23] = system: Rattus norvegicus; test: Antipsychotic activity in Sprague-Dawley rat psychosis model assessed as inhibition of MK-801-induced locomotion at 3 mg/kg, ip administered 5 mins prior to MK-801-challenge measured after 15 mins up to 1 hr relative to vehicle-treated control; format: functional; details: route intraperitoneal
[24] = system: Rattus norvegicus; test: Antipsychotic activity in Sprague-Dawley rat conditioned avoidance response model assessed as reduction in avoidance at 6 mg/kg, ip after 15 mins relative to vehicle-treated control; format: functional; parameters: scale not given: the % may be the effect or the level left; details: route intraperitoneal
[25] = system: Rattus norvegicus; test: Antipsychotic activity in Sprague-Dawley rat psychosis model assessed as inhibition of MK-801-induced stereotypy at 10 mg/kg, ip administered 5 mins prior to MK-801-challenge measured after 15 mins up to 1 hr relative to vehicle-treated control; format: functional; details: route intraperitoneal
[26] = Metabolic stability in rat liver microsomes assessed as compound remaining after 60 mins; format: ADME; details: read-out: Stability
[27] = system: Rattus norvegicus; test: Antipsychotic activity in ip dosed Sprague-Dawley rat psychosis model assessed as inhibition of MK-801-induced locomotion administered 5 mins prior to MK-801-challenge measured after 15 mins up to 1 hr relative to vehicle-treated control; format: functional

- Ratio IC50 [1]: > 500
- Ratio IC50 [5]: > 500
- inhibition [7]: 60.8%
- Ratio IC50 [9]: > 500
- remaining at 1 h [10]: 57%
- Ratio IC50 [13]: > 500
- inhibition [15]: 16.5%
- IC50 [17]: 7.45 nM
- Ratio IC50 [18]: > 500
- inhibition [19]: 0%
- Ratio IC50 [20]: > 500
- remaining at 1 h [26]: 65%
SMILES: Cc1nc(C2CCOCC2)n2c1sc1cc(OCc3ccc4ccccc4n3)ccc12
- ED50 [2]: 1.27 mg/kg
- inhibition [3]: Dose-dependent effect
- inhibition in vivo at 0.3 mg/kg [4]: 13%
- Activity [6]: 67%
- ED50 [8]: 16.3 mg/kg
- Activity [11]: 76%
- inhibition in vivo at 3 mg/kg [12]: 56%
- inhibition in vivo at 6 mg/kg [14]: 76%
- Activity [16]: 67%
- inhibition in vivo at 6 mg/kg [21]: 46%
- Activity [22]: Dose-dependent effect
- ED50 ([22]; 0.25 h): 1.6 mg/kg
- inhibition in vivo at 3 mg/kg [23]: 58%
- Activity [24]: 94%
- inhibition in vivo at 10 mg/kg [25]: 66%
- ED50 [27]: 1.44 mg/kg
- inhibition [27]: Dose-dependent effect
